Laboratory results published in US9204653B2, “5-fluoro pyrimidine derivatives” (DOW AGROSCIENCES LLC, priority 2008, dated 2015).
Where two headings read alike, the source gives them in different places.

Tested on: Mycosphaerella graminicola; Anamorph: Septoria tritici; Bayer Code SEPTTR
Test: Leaf blotch of wheat, foliar fungicide treatment, one day protectant (1DP) or three day curative (3DC)
Format: in vivo, Septoria tritici on wheat plants (variety Yuma)
Conditions: Zymoseptoria tritici; for pest or weed control at 50 ppm / pest or weed control at 200 ppm: % disease control rating
[1] = 24 h, one day protectant (1DP), 25 ppm, rating of percent disease control, read-out: SETTTR 1DP 25 ppm
[2] = 24 h, one day protectant (1DP), rating of percent disease control, read-out: SEPTTR 1DP 100 ppm
[3] = 72 h, three day curative (3DC), 25 ppm, rating of percent disease control, read-out: SEPTTR 3DC 25 ppm
[4] = 72 h, three day curative (3DC), rating of percent disease control, read-out: SEPTTR 3DC 100 ppm
[5] = 24 h, one day protectant (1DP), 25 ppm (first 1DP column), percent control rating, read-out: SETTTR 1DP 25 ppm
[6] = 24 h, one day protectant (1DP), 25 ppm as printed (second 1DP column), percent control rating, read-out: SETTTR 1DP 25 ppm
[7] = 72 h, three day curative (3DC), 25 ppm, percent control rating, read-out: SEPTTR 3DC 25 ppm
[8] = 72 h, three day curative (3DC), percent control rating, read-out: SEPTTR 3DC 100 ppm
[9] = 24 h, one day protectant (1DP), 25 ppm, percent disease control rating, read-out: SETTTR 1DP 25 ppm
[10] = 24 h, one day protectant (1DP), percent disease control rating, read-out: SEPTTR 1DP 100 ppm
[11] = 72 h, three day curative (3DC), 25 ppm, percent disease control rating, read-out: SEPTTR 3DC 25 ppm
[12] = 72 h, three day curative (3DC), percent disease control rating, read-out: SEPTTR 3DC 100 ppm
[13] = 24 h, one day protectant, 25 ppm, rating of percent disease control, read-out: SETTTR 1DP 25 ppm
[14] = 24 h, one day protectant, rating of percent disease control, read-out: SEPTTR 1DP 100 ppm
[15] = 72 h, three day curative, 25 ppm, rating of percent disease control, read-out: SEPTTR 3DC 25 ppm
[16] = 72 h, three day curative, rating of percent disease control, read-out: SEPTTR 3DC 100 ppm

**Q.** Which results are given for `O=C(Nc1ccccc1F)Nc1nc(OCc2cccc(F)c2)ncc1F` [Compound 231]?
**A.** pest or weed control at 25 ppm [1]: 0 to 25%; pest or weed control at 100 ppm [2]: 0 to 25%; pest or weed control at 25 ppm [3]: 0 to 25%; pest or weed control at 100 ppm [4]: 0 to 25%

**Q.** For `O=C(Nc1nc(O)ncc1F)c1ccc(Cl)nc1` [Compound 965], which pest or weed control at 25 ppm [5] is on record?
**A.** The pest or weed control at 25 ppm was 26 to 50%.

**Q.** And the pest or weed control at 25 ppm [6]?
**A.** The pest or weed control at 25 ppm was 76 to 100%.

**Q.** And the pest or weed control at 25 ppm [7]?
**A.** Its pest or weed control at 25 ppm is 26 to 50%.

**Q.** What about the pest or weed control at 100 ppm [8] of the same molecule?
**A.** The pest or weed control at 100 ppm was 26 to 50%.

**Q.** For `CN1CCCC/C1=N\c1nc(OCc2cccs2)ncc1F` [Compound 530], which pest or weed control at 25 ppm [1] is on record?
**A.** Its pest or weed control at 25 ppm is 76 to 100%.

**Q.** What about the pest or weed control at 100 ppm [2] of the same molecule?
**A.** The pest or weed control at 100 ppm was 76 to 100%.

**Q.** What about the pest or weed control at 25 ppm [3] of the same molecule?
**A.** The pest or weed control at 25 ppm was 51 to 75%.

**Q.** And the pest or weed control at 100 ppm [4]?
**A.** Its pest or weed control at 100 ppm is 76 to 100%.

**Q.** Which pest or weed control at 50 ppm (24 h, one day protectant) does the source give for `Fc1cnc(OCCc2ccccc2)nc1N1CCOCC1` [Compound 828] here?
**A.** The pest or weed control at 50 ppm was 0 to 25%.

**Q.** What about the pest or weed control at 200 ppm (24 h, one day protectant) of the same molecule?
**A.** The pest or weed control at 200 ppm was 0 to 25%.

**Q.** For `Fc1cnc(OCc2ccncc2)nc1NCc1cccs1` [Compound 902], which pest or weed control at 200 ppm (24 h, one day protectant) is on record?
**A.** The pest or weed control at 200 ppm was 76 to 100%.

**Q.** Which results are given for `O=C(NCc1ccccc1F)Nc1nc(OCc2ccc(F)cc2)ncc1F` [Compound 477]?
**A.** pest or weed control at 25 ppm [1]: 0 to 25%; pest or weed control at 100 ppm [2]: 0 to 25%; pest or weed control at 25 ppm [3]: 0 to 25%; pest or weed control at 100 ppm [4]: 51 to 75%

**Q.** With `COc1ncc(F)c(N/N=C/c2ccco2)n1` [Compound 1023] as the molecule, how does the pest or weed control at 25 ppm [5] read?
**A.** Its pest or weed control at 25 ppm is 0 to 25%.

**Q.** What about the pest or weed control at 25 ppm [6] of the same molecule?
**A.** The pest or weed control at 25 ppm was 0 to 25%.

**Q.** And the pest or weed control at 25 ppm [7]?
**A.** The pest or weed control at 25 ppm was 0 to 25%.

**Q.** What about the pest or weed control at 100 ppm [8] of the same molecule?
**A.** Its pest or weed control at 100 ppm is 0 to 25%.

**Q.** For `COc1ccccc1COc1ncc(F)c(NC(=S)NCc2ccccc2F)n1` [Compound 797], which pest or weed control at 25 ppm [1] is on record?
**A.** Its pest or weed control at 25 ppm is 51 to 75%.

**Q.** What about the pest or weed control at 100 ppm [2] of the same molecule?
**A.** Its pest or weed control at 100 ppm is 76 to 100%.

**Q.** What about the pest or weed control at 25 ppm [3] of the same molecule?
**A.** Its pest or weed control at 25 ppm is 26 to 50%.

**Q.** And the pest or weed control at 100 ppm [4]?
**A.** The pest or weed control at 100 ppm was 76 to 100%.

**Q.** Which pest or weed control at 25 ppm [1] does the source give for `Cc1ccc(COc2ncc(F)c(NNC3CCCCC3)n2)cc1` [Compound 244] here?
**A.** The pest or weed control at 25 ppm was 0 to 25%.

**Q.** And the pest or weed control at 100 ppm [2]?
**A.** The pest or weed control at 100 ppm was 76 to 100%.

**Q.** What about the pest or weed control at 25 ppm [3] of the same molecule?
**A.** Its pest or weed control at 25 ppm is 0 to 25%.

**Q.** What about the pest or weed control at 100 ppm [4] of the same molecule?
**A.** Its pest or weed control at 100 ppm is 76 to 100%.

**Q.** With `N#Cc1ccc(COc2ncc(F)c(N)n2)cc1` [Compound 74] as the molecule, how does the pest or weed control at 25 ppm [9] read?
**A.** The pest or weed control at 25 ppm was 51 to 75%.

**Q.** And the pest or weed control at 100 ppm [10]?
**A.** The pest or weed control at 100 ppm was 76 to 100%.

**Q.** And the pest or weed control at 25 ppm [11]?
**A.** The pest or weed control at 25 ppm was 0 to 25%.

**Q.** And the pest or weed control at 100 ppm [12]?
**A.** The pest or weed control at 100 ppm was 0 to 25%.

**Q.** Which results are given for `COc1ncc(F)c(N/N=C/c2cccs2)n1` [Compound 1024]?
**A.** pest or weed control at 25 ppm [5]: 0 to 25%; pest or weed control at 25 ppm [6]: 0 to 25%; pest or weed control at 25 ppm [7]: 0 to 25%; pest or weed control at 100 ppm [8]: 0 to 25%

**Q.** With `CNC(=O)/C(=N/OC)c1ccccc1COc1ncc(F)c(N)n1` [Compound 96] as the molecule, how does the pest or weed control at 25 ppm [9] read?
**A.** Its pest or weed control at 25 ppm is 0 to 25%.

**Q.** And the pest or weed control at 100 ppm [10]?
**A.** Its pest or weed control at 100 ppm is 0 to 25%.

**Q.** And the pest or weed control at 25 ppm [11]?
**A.** Its pest or weed control at 25 ppm is 0 to 25%.

**Q.** And the pest or weed control at 100 ppm [12]?
**A.** The pest or weed control at 100 ppm was 0 to 25%.

**Q.** How did the pest or weed control at 50 ppm (24 h, one day protectant) turn out when `CCOc1ncc(F)c(N)n1` [Compound 853] was run?
**A.** Its pest or weed control at 50 ppm is 0 to 25%.

**Q.** And the pest or weed control at 200 ppm (24 h, one day protectant)?
**A.** The pest or weed control at 200 ppm was 0 to 25%.

**Q.** For `COc1ccc(COc2ncc(F)c(/N=C/N(C)C)n2)cc1F` [Compound 663], which pest or weed control at 25 ppm [13] is on record?
**A.** The pest or weed control at 25 ppm was 76 to 100%.

**Q.** And the pest or weed control at 100 ppm [14]?
**A.** The pest or weed control at 100 ppm was 76 to 100%.

**Q.** What about the pest or weed control at 25 ppm [15] of the same molecule?
**A.** Its pest or weed control at 25 ppm is 76 to 100%.

**Q.** What about the pest or weed control at 100 ppm [16] of the same molecule?
**A.** Its pest or weed control at 100 ppm is 76 to 100%.

**Q.** With `O=S(=O)(Nc1nc(OCc2ccccc2)ncc1F)c1ccccc1` [Compound 1010] as the molecule, how does the pest or weed control at 25 ppm [5] read?
**A.** The pest or weed control at 25 ppm was 0 to 25%.

**Q.** And the pest or weed control at 25 ppm [6]?
**A.** Its pest or weed control at 25 ppm is 0 to 25%.

**Q.** What about the pest or weed control at 25 ppm [7] of the same molecule?
**A.** The pest or weed control at 25 ppm was 0 to 25%.

**Q.** And the pest or weed control at 100 ppm [8]?
**A.** The pest or weed control at 100 ppm was 0 to 25%.

**Q.** With `Fc1cnc(OCc2cccs2)nc1NCc1ccc(Cl)nc1` [Compound 874] as the molecule, how does the pest or weed control at 50 ppm (24 h, one day protectant) read?
**A.** The pest or weed control at 50 ppm was 0 to 25%.

**Q.** And the pest or weed control at 200 ppm (24 h, one day protectant)?
**A.** The pest or weed control at 200 ppm was 0 to 25%.

**Q.** Which pest or weed control at 200 ppm (24 h, one day protectant) does the source give for `Fc1cnc(OCc2ccc(C(F)(F)F)cc2)nc1NC1CC1` [Compound 819] here?
**A.** Its pest or weed control at 200 ppm is 76 to 100%.

**Q.** `Cc1ccc(COc2ncc(F)c(NC(=S)NCc3ccccc3F)n2)cc1` [Compound 670] was tested. Which pest or weed control at 25 ppm [13] did it give?
**A.** The pest or weed control at 25 ppm was 51 to 75%.

**Q.** What about the pest or weed control at 100 ppm [14] of the same molecule?
**A.** The pest or weed control at 100 ppm was 76 to 100%.

**Q.** And the pest or weed control at 25 ppm [15]?
**A.** The pest or weed control at 25 ppm was 51 to 75%.

**Q.** And the pest or weed control at 100 ppm [16]?
**A.** The pest or weed control at 100 ppm was 76 to 100%.

**Q.** `Fc1ccc(COc2ncc(F)c(NCC(F)(F)F)n2)cc1` [Compound 833] was tested. Which pest or weed control at 50 ppm (24 h, one day protectant) did it give?
**A.** The pest or weed control at 50 ppm was 26 to 50%.

**Q.** What about the pest or weed control at 200 ppm (24 h, one day protectant) of the same molecule?
**A.** The pest or weed control at 200 ppm was 51 to 75%.

**Q.** How did the pest or weed control at 25 ppm [1] turn out when `Nc1nc(OCCOc2ccccc2)ncc1F` [Compound 748] was run?
**A.** Its pest or weed control at 25 ppm is 0 to 25%.

**Q.** And the pest or weed control at 100 ppm [2]?
**A.** The pest or weed control at 100 ppm was 0 to 25%.

**Q.** How did the pest or weed control at 25 ppm [5] turn out when `Cc1ccc(COc2ncc(F)c(NS(=O)(=O)c3ccc(C)cc3)n2)cc1` [Compound 955, N-(5-Fluoro-2-(4-methylbenzyloxy)pyrimidin-4-yl)-4-methylbenzenesulfonamide] was run?
**A.** Its pest or weed control at 25 ppm is 0 to 25%.

**Q.** What about the pest or weed control at 25 ppm [6] of the same molecule?
**A.** The pest or weed control at 25 ppm was 0 to 25%.

**Q.** What about the pest or weed control at 25 ppm [7] of the same molecule?
**A.** The pest or weed control at 25 ppm was 0 to 25%.

**Q.** And the pest or weed control at 100 ppm [8]?
**A.** Its pest or weed control at 100 ppm is 0 to 25%.
